According to PMC13289148, “Assessment of the toxic effects of parabens, commonly used preservatives in cosmetics, and their halogenated by-products on human skin and endothelial cells” (NAM journal, 2025):
Entries after “also recorded” stand apart in the source; their conditions may differ.

Assays:
HMEC-1 cells = assay: Wound healing (scratch) assay, HMEC-1; assay type: cell-based, human; conditions: for sensitivity at high concentration / proliferation rate / wound healing / proliferation rate relative to baseline / untreated control: HMEC-1, 100 µM; for proliferation rate in wound healing assay: HMEC-1, 1–10 µM; for proliferation rate in wound healing assay / proliferation rate / wound healing / proliferation rate relative to baseline / untreated control: 24 h
Experimental: (§1) The human epidermal keratinocytes HEK001 (CRL-2404, ATCC, Manassas, VA) were maintained in a keratinocyte-serum-free medium supplemented with 5 ng/mL human recombinant EGF. The cells were incubated under 5 % CO2 and a 95 % humidified atmosphere at 37 °C ([Bogen et al., 2017]). HMEC-1 cells (CRL-3243, ATCC) were cultured at 37 °C in a 5 % CO2 humidified atmosphere using MCDB-131 medium supplemented with 10 % fetal bovine serum, 1 % penicillin/streptomycin, 10 mM l-glutamine, 1 μg/mL hydrocortisone, and 10 ng/mL EGF supplement.
(§2) The experiments were performed with biological (96 well plates) and technical (wells) replicates. Four to five biological replicates with four technical replicates were used to determine cytotoxicity. Ten paraben concentrations were assessed, ranging from a low human serum-relevant concentration (1 pM) to a high non-human-relevant concentration (1 mM). A solvent control of 0.6 % DMSO and a positive control of 5 % DMSO were also used. Three representative concentrations were chosen for each cell line for the wound-healing assay. Those concentrations were 1 µM, 10 µM, and 100 µM. Upon dosing, plates were returned to the incubator for a 24-hour exposure period.
(§3) As described by [Grada et al. (2017)] and [Yarrow et al. (2004)], a wound-healing assay was used to evaluate the proliferation rate of a disrupted cell monolayer. Cells were seeded at 200,000 cells/mL in 48-well plates and allowed to stabilize, reaching 90–100 % confluency within 24–72 h. Once confluent, the growth media was removed, and a scratch was created in the cell monolayer using a pipette tip. Manual disruption of the cell monolayer was chosen over the use of inserts or automated scratching devices to design experiments that are cost-effective and accessible to laboratories with limited budgets. This approach provides greater flexibility in experimental design without reliance on specialized equipment, making it a practical solution for resource-constrained settings. Additionally, the manual scratch method may better simulate real-world injury scenarios. To minimize variability, consistent pipette tip sizes were employed, experiments were performed in multiple replicates, and immediate visual inspections were conducted to ensure reproducibility and uniformity across trials. The exposure media was then applied, and cytochalasin D ([…]) was used as a positive control to inhibit wound healing by suppressing cell division via […]. Cells were incubated with exposure media for 24 h while kinetic high contrast brightfield (HCBF) images were captured every 30 min using the Lionheart FX automated microscope (Biotek, Agilent). Gen5 software analyzed the scratch area over time, measuring the reduction in cell-free area as migration occurred. All data were normalized to the solvent control for consistency.

HEK001 cells = assay: Wound healing (scratch) assay, HEK001; assay type: cell-based, human; conditions: for proliferation rate in wound healing assay / proliferation rate / wound healing: 24 h; for proliferation rate / wound healing: HEK001, 100 µM
Experimental: as §1, §2, §3

[1] = MTT cytotoxicity assay, HMEC-1 endothelial cells; assay type: cell-based; conditions: human, HMEC-1 dermal microvascular endothelial cells, read-out: EC50 from cytotoxicity assay, HMEC-1
Experimental: as §1, §2
(§4) Cell viability was assessed using the MTT assay [3-(4,5-dimethylthiazol-2-yl)−2,5-diphenyltetrazolium bromide] ([Solan et al., 2022]). After 24 h of exposure, a 20 % tetrazolium dye solution was added to the cells. The NAD(P)H-dependent oxidoreductase enzymes in viable cells reduced the tetrazolium dye, producing insoluble formazan crystals visible as a purple coloration, indicative of active cellular respiration. Following the incubation period, the media was carefully removed, leaving the formazan crystals behind. To dissolve these crystals, a 1:1 solution of ethanol and DMSO was added to the plate. Absorbance was then measured at 595 nm on a spectrophotometer to quantify the extent of formazan formation (BioTek SynergyTM H1, Winooski, VT).
(§5) A 24-hour exposure period was selected to evaluate the acute toxicity of parabens on HEK001 and HMEC-1 cell lines. […] Assessing the acute effects on these less-characterized cell lines is critical for enabling meaningful comparisons across models. Additionally, acute toxicity studies minimize confounding factors such as nutrient depletion and cell overgrowth, facilitating higher-throughput screening.

[2] = tested on: HEK001 cells (human epidermal keratinocytes); assay: MTT cytotoxicity assay, HEK001 keratinocytes; assay type: cell-based; conditions: for EC50: 24 h exposure, MTT, HEK001 keratinocytes, average ± standard deviation, read-out: EC50 from cytotoxicity assay, HEK001; for cytotoxic response at high concentration: HEK001, 100 µM, proliferation could not be observed
Experimental: as §1, §2, §4, §5

[3] = MTT cytotoxicity assay, HEK001 keratinocytes; assay type: cell-based, human; conditions: human, HEK001 epidermal keratinocytes, 24 h exposure, MTT, HEK001 keratinocytes; average ± standard deviation; read-out: EC50 from cytotoxicity assay, HEK001
Experimental: as §1, §2, §4, §5

HepG2 cells [4] = tested on: HepG2 cells; parameters: method as in Khanal et al., 2012; conditions: 125 µM, HepG2, compared to HBA, MeP, and PrP; ref Khanal et al., 2012; cited from earlier work
HDFn cells = tested on: HDFn cells; parameters: method as in Kizhedath et al., 2019; conditions: 125 µM, ref Kizhedath et al., 2019; cited from earlier work
HepG2 cells [5] = tested on: HepG2 cells; parameters: method as in Kizhedath et al., 2019; conditions: 125 µM, ref Kizhedath et al., 2019; cited from earlier work
red blood cells (RBCs) = tested on: red blood cells (RBCs); parameters: method as in Ko et al. (2023); conditions: ref Ko et al. (2023), cited from earlier work
M624 melanoma cells = tested on: M624 melanoma cells; parameters: method as in Couch, 2024; Kinney, 2022; conditions: 200 µM, ref Couch, 2024, Kinney, 2022; cited from earlier work
HaCaT keratinocytes = tested on: HaCaT keratinocytes; parameters: method as in Couch, 2024; Kinney, 2022; conditions: 200 µM, ref Couch, 2024, Kinney, 2022; cited from earlier work
[6] = HEK001, 1 µM, versus solvent control
[7] = HEK001, 10 µM, versus solvent control
[8] = 24 h exposure, MTT, HMEC-1 endothelial cells, average ± standard deviation

SMILES	sensitivity at high concentration (HMEC-1 cells)	proliferation rate in wound healing assay (HMEC-1 cells)	proliferation rate in wound healing assay (HEK001 cells; [6])	EC50 at 24 h [1, 8] [µM]	EC50 [2] [µM]	cytotoxic response at high concentration [2]	EC50 at 24 h [3] [µM]	proliferation rate relative to baseline / untreated control (HMEC-1 cells)	proliferation rate / wound healing (HEK001 cells; versus solvent control)	other results
O=C(OCc1ccccc1)c1ccc(O)cc1 [BeP, benzylparaben]	too sensitive to conduct proliferation assays	proliferation rates comparable to those observed in untreated controls	lower proliferation rates compared to the solvent control	25.6 ± 3.9	3.3 ± 1	acutely lethal responses	3.34 ± 0.97			proliferation rate in wound healing assay (HEK001 cells; [7]): proliferation significantly decreased; also recorded: lower proliferation rates compared to the solvent control
CCCCOC(=O)c1ccc(O)cc1 [BuP, butylparaben]	too sensitive to conduct proliferation assays	proliferation rates comparable to those observed in untreated controls	lower proliferation rates compared to the solvent control	75.8 ± 13.4	1.5 ± 0.51	acutely lethal responses	1.52 ± 0.51			percentage of apoptotic cells (HepG2 cells [4]): higher percentage of apoptotic cells; cell cycle (HDFn cells): cell cycle arrest in the G1 phase; proliferation rate in wound healing assay (HEK001 cells; [7]): proliferation significantly decreased; also recorded: lower proliferation rates compared to the solvent control; cell cycle (HepG2 cells [5]): cell cycle arrest in the G1 phase; hemolysis of RBCs (red blood cells (RBCs); 500 µM): increased hemolysis; extracellular phosphatidylserine of RBCs (red blood cells (RBCs); only BuP among MeP, EtP, PrP, BuP, HBA): increase in extracellular phosphatidylserine
COC(=O)c1ccc(O)c(Cl)c1 [CMeP, methyl 3‑chloro-4-hydroxybenzoate]		proliferation rates comparable to those observed in untreated controls; also recorded: no significant changes in proliferation		788 ± 139		significant cell death	2.2 ± 0.8	20–30%		proliferation rate / wound healing (HMEC-1 cells): reduction; proliferation rate in wound healing assay (HEK001 cells; HEK001, 1–10 µM): decrease in proliferation
COC(=O)c1cc(Br)c(O)c(Br)c1 [DBMeP, methyl 3,5-dibromo-4-hydroxybenzoate]			initially reduced proliferation	489 ± 86.4	1.5 ± 0.4		1.49 ± 0.37	20–30%	dose-dependent increase in proliferation	proliferation in wound healing assay (HMEC-1 cells; HMEC-1, concentration not stated, high variability): reduction in proliferation; proliferation in wound healing assay (HEK001 cells; HEK001, concentrations higher than 1 µM): dose-dependent increase in proliferation
COC(=O)c1cc(Cl)c(O)c(Cl)c1 [DCMeP, methyl 3,5-dichloro-4-hydroxybenzoate]		no significant changes in proliferation		> 10000		significant cell death	54.5 ± 17.8	20–30%		proliferation rate / wound healing (HMEC-1 cells): reduction; proliferation rate in wound healing assay (HEK001 cells; HEK001, 1–10 µM): decrease in proliferation
CCOC(=O)c1ccc(O)cc1 [EtP, ethylparaben]		proliferation rates comparable to those observed in untreated controls		171 ± 77.9			536 ± 178	20–30%	substantial decrease in proliferation rates	
O=C(O)c1ccc(O)cc1 [HBA, 4-hydroxybenzoic acid]				> 10000			696 ± 245			
COC(=O)c1ccc(O)cc1 [MeP, Methyl 4-hydroxybenzoate]		proliferation rates comparable to those observed in untreated controls					1310 ± 464	160%	substantial decrease in proliferation rates	EC50 at 24 h [1]: 1090 ± 618 µM
CCCOC(=O)c1ccc(O)cc1 [PrP, propylparaben]	too sensitive to conduct proliferation assays	proliferation rates comparable to those observed in untreated controls		102 ± 18		acutely lethal responses	17 ± 9.9			
CCCCCCCOC(=O)c1ccc(O)cc1 [heptylparaben]										cell viability, cytochrome C levels, caspase 3 (M624 melanoma cells): significantly reduced cell viability, increased cytochrome C levels, and activated caspase 3; cell viability, cytochrome C levels, caspase 3 (HaCaT keratinocytes): significantly reduced cell viability, increased cytochrome C levels, and activated caspase 3
